Assay results as given in patent US9497975B2, “Broad spectrum natural preservative composition” (The Trustees of Columbia University in the City of New York, priority 2011, dated 2016).

How the values were obtained:
A. niger = test: Efficacy of BA, THC and essential oils in anionic emulsion against A. niger, Example 2; assay type: cell-based, Aspergillus niger; details: essential oil 0.3% w/w alone or with BA 0.5% w/w and THC 0.05% w/w, incubation 48 hours, average of nine samples
Description: 0.9 gm aliquots of preservative containing emulsions were dispensed into several culture tubes. These were divided into various groups and inoculated with 0.1 ml of the test organism (bacteria, Candida albicans (10^8 cfu/ml) or Aspergillus niger (10^7 cfu/ml). After mixing, the tubes were incubated for 48 hours for bacteria t days for either C. albicans or A. niger. The cultures were then diluted serially with Drug Neutralizing Fluid (DNF) and 0.5 ml aliquots were plated on TSA and incubated for 24-48 hours (bacteria and C. albicans were incubated at 37° C. and A. niger at 30° C.). In the control group, the emulsion base without the preservatives was inoculated with each organism and processed similarly.
Various essential oils were used along with BA and THC and incorporated in anionic emulsion and tested against A. niger.

P. aeruginosa = test: Antimicrobial activity of test formulations in cationic or anionic emulsion, Example 3; assay type: cell-based, Pseudomonas aeruginosa; details: incubated 48 hours
Description: (§1) A stock solution was prepared containing the active ingredients and was then diluted in either a cationic or anionic test formulation, where the cationic formulation tested was Formulation A described in Example 1 and the anionic formulation tested was Formulation B described in Example 1: […]
(§2) Test formulations comprising the synthetic preservative methylparaben, at a concentration of 0.3% w/w, was used as a positive control.
(§3) The following method of testing for antimicrobial activity was used. 25 gms of emulsion containing 1-1.2% of various preservative was prepared. 0.9 gm aliquots of preservative containing emulsions were dispensed into several culture tubes. These were divided into various groups and inoculated with 0.1 ml of the test organism (bacteria, Candida albicans (10^8 cfu/ml) or Aspergillus niger (10^7 cfu/ml)). After mixing, the tubes were incubated for 48 hours for bacteria and for 7 days days for either C. albicans or A. niger. The cultures were then diluted serially with Drug Neutralizing Fluid (DNF) and 0.5 ml aliquots were plated on TSA and incubated for 24-48 hours (bacteria and C. albicans were incubated at 37° C. and A. niger at 30° C.). […] The log 10 reduction in colony counts of the test group from the colony counts of control group was determined.

S. aureus = test: as above; assay type: cell-based, Staphylococcus aureus; details: incubated 48 hours
Description: as §1, §2, §3

Aspergillus niger = test: as above; assay type: cell-based; details: incubated 7 days
Description: as §1, §2
(§4) The following method of testing for antimicrobial activity was used. 25 gms of emulsion containing 1-1.2% of various preservative was prepared. 0.9 gm aliquots of preservative containing emulsions were dispensed into several culture tubes. These were divided into various groups and inoculated with 0.1 ml of the test organism (bacteria, Candida albicans (10^8 cfu/ml) or Aspergillus niger (10^7 cfu/ml)). After mixing, the tubes were incubated for 48 hours for bacteria and for 7 days days for either C. albicans or A. niger. The cultures were then diluted serially with Drug Neutralizing Fluid (DNF) and 0.5 ml aliquots were plated on TSA and incubated for 24-48 hours (bacteria and C. albicans were incubated at 37° C. and A. niger at 30° C.). In the control group, the emulsion base without the preservatives was inoculated with each organism and processed similarly. The log 10 reduction in colony counts of the test group from the colony counts of control group was determined.

Candida albicans = test: as above; assay type: cell-based; details: incubated 7 days
Description: as §1, §2, §4

[1] = anionic emulsion (Formulation B)
[2] = cationic emulsion (Formulation A)

Compound | log10 reduction in cfu, A. niger (A. niger) [log10] | log reduction from control growth, P. aeruginosa (P. aeruginosa; [1]) [log10] | log reduction from control growth, P. aeruginosa (P. aeruginosa; [2]) [log10] | log reduction from control growth, S. aureus (S. aureus; [1]) [log10] | log reduction from control growth, S. aureus (S. aureus; [2]) [log10] | log reduction from control growth, A. niger (Aspergillus niger; [1]) [log10] | log reduction from control growth, A. niger (Aspergillus niger; [2]) [log10] | log reduction from control growth, C. albicans (Candida albicans; [1]) [log10] | log reduction from control growth, C. albicans (Candida albicans; [2]) [log10]
Cc1ccc(C(C)C)c(O)c1 [TH, Thymol] | 0.8 |  |  |  |  |  |  |  | 
COC(=O)c1ccc(O)cc1 [methyl paraben, methylparaben] |  | 0.11 | 2.1 | 0.12 | 1.9 | 2.88 | 4.16 | 4.31 | 4.25
